# What was measured:
# [1] = target: GLP-1R (Homo sapiens, UniProt P43220); assay: GLP-1R cAMP experiment (HTRF cAMP agonist detection); assay type: cell-based; conditions: GLP-1R-HEK293 cells
# Experimental: The initial concentration was 500 nM, the compounds were diluted according to a 4-fold gradient in a total of 10 concentrations, and the diluent was dimethyl sulfoxide.
# • 1) 100 nL of each compound was transferred to a OptiPlate 384-well plate by using an Echo liquid transfer system; and • 2) the 384-well plate was centrifuged at 1000 rpm for 5 s.
# • 1) According to a conventional cell thawing method, a GLP-1R-HEK293 cell line was rapidly thawed in a 37° C. water bath; • 2) the cell suspension was transferred to a 15 mL centrifuge tube containing 10 mL of 1×HBSS solution; • 3) at room temperature, the tube was centrifuged at 1000 rpm for 5 min, to collect cells; 4) a supernatant was discarded carefully, and attention was paid to avoid sucking away the cells; • 5) the centrifuge tube was flicked gently, so that the cells were loosened, and 10 mL of 1×HBSS solution was added to resuspend the cells. The cells were blown and beaten up and down by using a sterile pipette, until the cells were blown and beaten to a single-cell state; • 6) the cells were counted by using a Vi-cell counter, to determine the cell concentration and determine the cell activity; • 7) GLP-1R-HEK293 cells were resuspended in a cAMP detection buffer solution (from the above cAMP detection kit), and the concentration was 2.0×10^5/mL; and 8) 10 μL of the GLP-1R-HEK293 cells was transferred into the OptiPlate 384-well plate. 2.4 HTRF cAMP Agonist Detection • 1) The 384-well plate was incubated at room temperature for 20 min, then a cAMP detection reagent (from the above cAMP detection kit) was added; • 2) an electric multi-channel pipette was used to add 10 μL of the cAMP detection reagent to each well; • 3) the 384-well plate was covered by using a TopSeal-A film, and incubated at room temperature for 60 min; and • 4) the TopSeal-A film was removed, and a signal on an Envision instrument was read.
# [2] = Oral pharmacokinetics in mice; assay type: in vivo, C57 mice; conditions: 10 mg/kg
# Experimental: Healthy male C57 mice (9 mice per compound, n=3), purchased from Shanghai Jihui Laboratory Animal Care Co., LTD, with an age of 6-8 weeks.
# The mice were fasted overnight before oral administration, and drunk freely, and feeding was resumed after 4 h of the administration. According to the weight of the mice weighed before the administration, the administration dose was calculated. It was intragastrically administered, and the administration dose was 10 mg/kg. At 0.083 h, 0.25 h, 0.5 h, 1 h, 2 h, 4 h, 8 h, and 24 h after the administration to test animals, about 110 μL of whole blood were respectively collected from submandibular veins of the mice by a semi-continuous method, and placed in a test tube containing K2EDTA. The tube was placed on ice, and centrifuged within 30 min (2000 g, 5 min, 4° C.), plasma was collected, transferred to an appropriately labeled test tube, and frozen at −80° C. in a refrigerator.
# A chromatographic column was Waters ACQUITY UPLC BEH C18 (2.1×50 mm, and 1.7 μm); mobile phase A: H2O-0.025% FA-1 mM NH4OAC, mobile phase B: ACN-0.025% FA-1 mM NH4OAC, flow rate: 0.60 mL/min, gradient elution program: start, 2% B, 0.2 min; 60% B, 0.7 min; 90% B, 1.50 min; 90% B, 2.0 min; 2% B, 2.01 min; 2.6 min, and stop; column temperature: 50° C.; and injection volume: 1 μL.
# Mass spectrometry method: LC-MS/MS-49 (Triple Quad 6500+)(SCIEX, USA), the ion source was an ESI source, the detection mode was positive ion detection, and the scanning mode was a multi-reaction monitoring (MRM) mode, m/z: 446.20/321.10 Da (Glipizide, internal standard).
# 10 μL of a plasma sample was taken and 200 μL of an internal standard working solution (Glipizide, 50 ng/mL) was added, vortex was performed for 1 min, then the mixture was centrifuged at 5800 rpm for 10 min. 70 μL of a supernatant was transferred to a 96-well plate, and 1 μL of the supernatant was taken and injected into LC-MS/MS for analysis.
# Pharmacokinetic (PK) parameters were calculated by using Phoenix WinNonlin 7.0; and the oral pharmacokinetic parameters of the mice, including AUC, Cmax, Tmax, T1/2 and the like, were estimated by using a non-compartmental model. […] PGP-46 T2
# [3] = system: hGLP-1R transgenic mouse B-hGLP-1R; assay: Mouse intraperitoneal glucose tolerance test (IPGTT); assay type: in vivo; conditions: hGLP-1R mice, 10 mg/kg oral gavage
# From the text: Specific steps were as follows: • 1) After the arrival of experimental animals (hGLP-1R transgenic mouse B-hGLP-1R, SPF-grade mouse, male, 6-8 weeks, and purchased from Baiosaitu Jiangsu Gene Biotechnology Co., Ltd.), all experimental animals were divided into one animal per cage and fed and adapted for 7 days before the start of the experiment (during which the health status of the animals was observed). At least 3 days before the start of IPGTT, the animals were weighed and solvent (0.5% methylcellulose solution) intragastric administration and intraperitoneal saline injection were performed. • 2) On the day before the experiment, the experimental animals were fasted overnight (14 h, 19:00-9:00), and at 9:00 am, the experimental animals were weighed and blood was collected from tail tips to measure the blood glucose.
# [4] = system: patients with Type-2 diabetes mellitus; conditions: first-phase clinical; cited from earlier work
# Sequence of GLP-1R (P43220 24-463): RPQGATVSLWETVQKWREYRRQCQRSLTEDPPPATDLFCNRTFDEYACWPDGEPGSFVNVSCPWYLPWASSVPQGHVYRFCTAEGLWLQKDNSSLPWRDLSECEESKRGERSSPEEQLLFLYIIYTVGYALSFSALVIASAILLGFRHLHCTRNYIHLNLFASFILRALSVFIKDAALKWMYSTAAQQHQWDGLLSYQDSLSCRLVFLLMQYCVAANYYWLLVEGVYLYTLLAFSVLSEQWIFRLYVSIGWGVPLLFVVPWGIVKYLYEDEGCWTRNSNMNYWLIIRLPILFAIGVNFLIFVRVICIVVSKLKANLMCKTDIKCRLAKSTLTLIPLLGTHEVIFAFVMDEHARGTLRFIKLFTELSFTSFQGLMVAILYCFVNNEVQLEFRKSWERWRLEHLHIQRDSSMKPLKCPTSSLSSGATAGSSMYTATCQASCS
EC50 [1] [nM],"AUC(0-inf) ([2]; male, C57, mouse, in vivo, po) [ng·h/mL]","AUC(0-t) ([2]; male, C57, mouse, in vivo, po) [ng·h/mL]","Cmax ([2]; male, C57, mouse, in vivo, po) [ng/mL]","MRT inf ([2]; male, C57, mouse, in vivo, po) [h]","MRT last ([2]; male, C57, mouse, in vivo, po) [h]","Tmax ([2]; male, C57, mouse, in vivo, po) [h]","half-life ([2]; male, C57, mouse, in vivo, po) [h]",SMILES,other results
0.82,3560,3310,1700,1.8,1.5,0.5,2.2,C#Cc1ccc(COc2cccc(C3CCN(Cc4nc5ccc(C(=O)O)cc5n4C[C@@H]4CCO4)CC3)n2)c(F)c1 [Compound 1],–
0.96,7010,6930,3170,3,2.8,0.5,2.6,C#Cc1ccc(COc2cccc(N3CCN(Cc4nc5ccc(C(=O)O)cc5n4C[C@@H]4CCO4)CC3)n2)c(F)c1 [Compound 2],blood glucose reducing effect ([3]; 2 g/kg glucose i.p.): significant blood glucose reducing effect; overall blood glucose-reducing effect compared with PF-06882961 ([3]; IPGTT): better than PF-06882961
0.8,–,–,–,–,–,–,–,CC#Cc1ccc(COc2cccc(N3CCN(Cc4nc5ccc(C(=O)O)cc5n4C[C@@H]4CCO4)CC3)n2)c(F)c1 [Compound 3],–
1.75,–,–,–,–,–,–,–,O=C(O)c1ccc2nc(CN3CCN(c4cccc(OCc5ccc(C#CC6CC6)cc5F)n4)CC3)n(C[C@@H]3CCO3)c2c1 [Compound 4],–
5.2,–,–,–,–,–,–,–,O=C(O)c1ccc2nc(CN3CCN(c4cccc(OCc5ccc(C#CCO)cc5F)n4)CC3)n(C[C@@H]3CCO3)c2c1 [Compound 5],–
0.39,12500,12500,6170,2,2,0.5,3.1,C#Cc1ccc(COc2cccc(N3CCN(Cc4nc5ccc(C(=O)O)cc5n4C[C@@H]4CCO4)CC3)n2)cc1 [Compound 7],–
0.1,10900,10900,4370,2.5,2.5,1,2.3,C#Cc1ccc(COc2cccc(N3CCN(Cc4nc5ccc(C(=O)O)cc5n4C[C@@H]4CCO4)CC3)n2)c(Cl)c1 [Compound 8],–
0.15,3920,3880,2620,1.4,1.3,0.5,1.4,C#Cc1ccc(COc2cccc(N3CCN(Cc4nc5ccc(C(=O)O)nc5n4C[C@@H]4CCO4)CC3)n2)c(F)c1 [Compound 9],–
0.1,9800,9780,4350,2.6,2.5,0.5,2.7,C#Cc1ccc(COc2nc(N3CCN(Cc4nc5ccc(C(=O)O)cc5n4C[C@@H]4CCO4)CC3)ccc2F)c(F)c1 [Compound 10],–
0.14,2280,2270,2030,1.9,1.8,0.5,3.9,C#Cc1ccc(COc2cccc(C3CCN(Cc4nc5c(F)cc(C(=O)O)cc5n4C[C@@H]4CCO4)CC3)n2)c(F)c1 [Compound 11],–
0.41,–,–,–,–,–,–,–,C#Cc1ccc(COc2cccc(N3CCN(Cc4nc5c(F)cc(C(=O)O)cc5n4C[C@@H]4CCO4)CC3)n2)c(Cl)c1 [Compound 12],–
0.85,–,–,–,–,–,–,–,C#Cc1ccc(COc2nc(N3CCN(Cc4nc5ccc(C(=O)O)cc5n4C[C@@H]4CCO4)CC3)ccc2F)cc1 [Compound 15],–
1.07,–,–,–,–,–,–,–,C#Cc1ccc(COc2nc(N3CCN(Cc4nc5ccc(C(=O)O)nc5n4C[C@@H]4CCO4)CC3)ccc2F)cc1 [Compound 16],–
0.56,5140,5130,2830,1.9,1.9,0.25,3,C#Cc1ccc(COc2nc(N3CCN(Cc4nc5ccc(C(=O)O)nc5n4C[C@@H]4CCO4)CC3)ccc2F)c(F)c1 [Compound 17],–
0.37,4140,4130,1470,3.1,3.1,0.5,2.6,C#Cc1ccc(COc2nc(N3CCN(Cc4nc5ccc(C(=O)O)nc5n4C[C@@H]4CCO4)CC3)ccc2F)c(Cl)c1 [Compound 18],–
0.51,10300,10300,3300,2.7,2.7,0.5,2.4,C#Cc1ccc(COc2nc(N3CCN(Cc4nc5ccc(C(=O)O)cc5n4C[C@@H]4CCO4)CC3)ccc2F)c(Cl)c1 [Compound 19],–
0.59,–,–,–,–,–,–,–,C#Cc1ccc(COc2nc(C3CCN(Cc4nc5ccc(C(=O)O)nc5n4C[C@@H]4CCO4)CC3)ccc2F)c(F)c1 [Compound 20],–
–,–,–,–,–,–,–,–,"N#Cc1ccc(COc2cccc(C3CCN(Cc4nc5ccc(C(=O)O)cc5n4C[C@@H]4CCO4)CC3)n2)c(F)c1 [PF-06882961, reference compound]","effects on blood glucose and weight [4]: significant effects on reducing blood glucose and weight; AUC(0-t) ([2]; male C57 mice, intragastric): 3427.0 ng·h/mL; AUC(0-∞) ([2]; male C57 mice, intragastric): 3444.0 ng·h/mL; Cmax ([2]; male C57 mice, intragastric): 4967.0 ng/mL; MRT(0-t) ([2]; male C57 mice, intragastric): 0.8 h; MRT(0-∞) ([2]; male C57 mice, intragastric): 0.8 h; T1/2 ([2]; male C57 mice, intragastric): 1.4 h; Tmax ([2]; male C57 mice, intragastric): 0.25 h"
